The text below walks through data of ChEMBL document CHEMBL1155788, “Bis(sulfonamide) isosters of mycophenolic adenine dinucleotide analogues: inhibition of inosine monophosphate dehydrogenase” (Bioorg Med Chem, 2008).

In experiment [1] the target is Inosine-5'-monophosphate dehydrogenase 2 (Homo sapiens, UniProt P12268). Briefly: Inhibition of human IMP dehydrogenase 2.
Experiment [2] addresses Inosine-5'-monophosphate dehydrogenase 1 (Homo sapiens, UniProt P20839). Description: Inhibition of human IMP dehydrogenase 1.
Experiment [3] can be described thus: Inhibition of IMP dehydrogenase.

Inosine-5'-monophosphate dehydrogenase 1, sequence (P20839 whole entry): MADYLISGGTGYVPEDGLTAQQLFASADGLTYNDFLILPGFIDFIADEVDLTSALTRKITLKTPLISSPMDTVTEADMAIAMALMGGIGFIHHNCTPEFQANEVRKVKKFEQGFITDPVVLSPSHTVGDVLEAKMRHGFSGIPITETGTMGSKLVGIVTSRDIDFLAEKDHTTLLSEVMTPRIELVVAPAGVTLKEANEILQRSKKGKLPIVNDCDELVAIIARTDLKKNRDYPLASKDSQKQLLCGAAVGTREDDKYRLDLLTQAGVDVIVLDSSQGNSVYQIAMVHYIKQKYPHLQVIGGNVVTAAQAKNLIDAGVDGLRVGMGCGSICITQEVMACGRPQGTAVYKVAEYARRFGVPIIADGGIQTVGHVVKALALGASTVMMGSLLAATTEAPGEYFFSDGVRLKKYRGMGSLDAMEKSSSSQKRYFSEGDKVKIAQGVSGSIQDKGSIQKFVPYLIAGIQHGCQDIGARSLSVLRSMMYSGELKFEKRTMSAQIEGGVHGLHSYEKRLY

For the compound `C#Cc1nc(N)c2ncn([C@@H]3O[C@H](CNS(=O)(=O)CS(=O)(=O)NCCc4c(O)c5c(c(C)c4OC)COC5=O)[C@@H](O)[C@H]3O)c2n1`, the Ki in experiment [1] is 180 nM; in experiment [2], 520 nM.

In experiment [2], `COc1c(C)c2c(c(O)c1CCOP(=O)(O)CP(=O)(O)OC[C@H]1O[C@@H](n3cnc4c(N)nc(-c5ccccc5)nc43)[C@H](O)[C@@H]1O)C(=O)OC2` returned a Ki of 70 nM.

On to `CCc1nc(N)c2ncn([C@@H]3O[C@H](CNS(=O)(=O)CS(=O)(=O)NCCc4c(O)c5c(c(C)c4OC)COC5=O)[C@@H](O)[C@H]3O)c2n1`, for which the Ki in experiment [1] is 440 nM; in experiment [2], 820 nM.

Regarding `NC(=O)c1c[se]c([C@@H]2O[C@H](COP(=O)(O)OP(=O)(O)OC[C@H]3O[C@@H](n4cnc5c(N)ncnc54)[C@H](O)[C@@H]3O)[C@@H](O)[C@H]2O)n1`, the affinity in experiment [3], expressed as Ki, was 40 nM.

With `Nc1ncnc2c1ncn2[C@@H]1O[C@H](CNS(=O)(=O)CS(N)(=O)=O)[C@@H](O)[C@H]1O`, the Ki in experiment [1] and in experiment [2] was more than 100000 nM in each case.

`COc1c(C)c2c(c(O)c1CCO)C(=O)OC2`: the inhibitory constant (Ki) in experiment [1] is 3000 nM; in experiment [2], 15400 nM.

In the case of `NC(=O)c1csc([C@@H]2O[C@H](CNS(=O)(=O)CS(=O)(=O)NC[C@H]3O[C@@H](n4cnc5c(N)ncnc54)[C@H](O)[C@@H]3O)[C@@H](O)[C@H]2O)n1`, in experiment [2], the half-maximal inhibitory concentration (IC50) was found to be 23600 nM.

`COc1c(C)c2c(c(O)c1CCNS(=O)(=O)CS(=O)(=O)NC[C@H]1O[C@@H](n3cnc4c(N)nc(-c5ccccc5)nc43)[C@H](O)[C@@H]1O)C(=O)OC2`: the Ki in experiment [1] was determined as 310 nM; in experiment [2], 660 nM.

With `Nc1ncnc2c1ncn2[C@@H]1O[C@H](CO)[C@@H](O)[C@H]1O` [ADENOSINE], the Ki in experiment [1] and in experiment [2] was more than 100000 nM throughout.

In the case of `COc1c(C)c2c(c(O)c1CCNS(=O)(=O)CS(N)(=O)=O)C(=O)OC2` [MYCOPHENOLIC BIS(SULFONAMIDE)], the Ki was found to be 4000 nM in experiment [1] and 18200 nM in experiment [2].

On to `NC(=O)c1csc([C@@H]2O[C@H](COP(=O)(O)OP(=O)(O)OC[C@H]3O[C@@H](n4cnc5c(N)ncnc54)[C@H](O)[C@@H]3O)[C@@H](O)[C@H]2O)n1` [TIAZOFURIN ADENINE DINUCLEOTIDE], for which, in experiment [3], the affinity corresponds to a Ki of 100 nM.

In turn, `NC(=O)c1csc([C@@H]2O[C@H](CO)[C@@H](O)[C@H]2O)n1` [TIAZOFURIN] returned a Ki in experiment [3] of 100 nM.

Usually Ki stands for a measure of affinity in units of concentration, obtained from inhibition or displacement. A lower Ki goes with tighter binding. What is called IC50 is the concentration that gives 50% inhibition.
